Results taken from patent US20250188065A1, “LIGHT-CONTROLLED BIOORTHOGONAL TETRAZINE LIGATION” (The Regents of the University Of California, priority 2020, published 2025).
Entries after “also recorded” stand apart in the source; their conditions may differ.

Experiments:
[1] = system: Hep 3B human liver cancer cells; assay: Cell viability after light-activated tetrazine prodrug therapy; assay type: cell-based; conditions: for influence on cell viability, agent alone: 1a 8 μM or TCO-Dox 3c 5.5 μM alone; for influence on cell viability, agent alone with irradiation: LED light 2 minutes, 1a 8 μM, TCO-Dox 3c 5.5 μM or side product 4c 5.5 μM alone
Procedure: FIGS. 5A-5B. Light-activated tetrazine prodrug therapy in Hep 3B cancer cells. FIG. 5A: Application of light-controlled tetrazine ligation to release the chemotherapeutic doxorubicin in the presence of living Hep 3B cancer cells. Dox, doxorubicin. FIG. 5B: Cell viability of Hep 3B cancer cells after treatments with photocaged dihydrotetrazine 1a (8 μM), TCO-Dox 3c (5.5 μM), side product 4c (5.5 μM), and Dox 5a (5.5 μM) with or without irradiation by LED light (405 nm, 18 W) for 2 minutes, followed by incubation at 37° C. for 24 hours. Error bars indicate standard error of mean (SEM), which are measured from 3 replicates. Statistically significant differences in cell viability between no treatment and other means are indicated: **P<0.01. ns, not significant.
Based on the positive dual activation results obtained from the in vitro experiments, we next tested if light-triggered tetrazine ligation enabled prodrug therapy could be carried out in the presence of live cancer cells (FIG. 5B). […] Loss of cell viability was similar to that observed when cells were directly treated with Dox […] (5.5 μM) under the same conditions.
Based on the positive results obtained, we tested whether light-triggered drug delivery could be carried out in the presence of living cancer cells (FIG. 5B). […] However, upon irradiation with LED light (405 nm, 18W) for 2 minutes, followed by incubation for 24 hours, a 75.1±3% reduction of cell viability was observed. The loss of cell viability was similar to that observed when cells were directly treated with Dox 5a (5.5 μM) under the same conditions.

[2] = Stability in 4-methylpiperidine/DMF solution (Fmoc deprotection conditions); assay type: physicochemical
Excerpt: Although tetrazine ligation is a widely used bioorthogonal tool, tetrazine-containing amino acid has been rarely explored in the solid-phase peptide synthesis (SPPS) due to dramatic degradations of tetrazines under the protection conditions, such as 4-methylpiperidine/DMF solution. Markedly, photocaged dihydrotetrazine 1a proves to be stable in the presence of 4-methylpiperidine/DMF solution, so that we were able to employ photocaged dihydrotetrazine-containing amino acid in SPPS and obtained the desired tetrazine-containing peptide in the late stage. Here we have synthesized unnatural amino acid photocaged dihydrotetrazine-lysine 1b (12 mg, 15 μmol) and obtained a five-amino-acid peptide 1c through practical SPPS in 49% yield (FIG. 3A). After irradiation of dihydrotetrazine-peptide 1c (10 μM) for 2 minutes in PBS at 37° C., tetrazine-peptide 2c could been readily achieved, which contains two common bioorthogonal groups, including an azido group and a tetrazine group.
Considering the stability of photocaged dihydrotetrazines, we asked if such groups could act as photoprotection moieties, masking latent tetrazines through harsh conditions that would normally be degradative. For example, in 4-methylpiperidine/DMF solution, 40% of tetrazine 2a degrades in 30 minutes. […] Therefore, we hypothesized that photocaged dihydrotetrazines would be tolerated during SPPS. […]

[3] = Second-order rate constant of tetrazine ligation with strained dienophile; conditions: with TCO-OH; disappearance of tetrazine absorption at 521 nm, pseudo first-order conditions
Excerpt: (§1) A photocaged dihydrotetrazine should be stable in aqueous solution and the dihydrotetrazine should rapidly be oxidized to tetrazine by air. With this hypothesis in mind, we synthesized photocaged dihydrotetrazine 1a from 3-(but-3-yn-1-yl)-6-phenyl-1,2,4,5-tetrazine, which could be converted to the corresponding dihydrotetrazine using the reductant thiourea dioxide (FIG. 1B). 1-(2-Nitrophenyl)ethyl carbamate was investigated as the photocleavable functional group, due to its sensitivity to visible blue light (28) and biocompatibility (29). After reacting the dihydrotetrazine intermediate with the selected photocleavable group, the desired product 1-(2-nitrophenyl)ethyl 6-(but-3-yn-1-yl)-3-phenyl-1,2,4,5-tetrazine-1(4H)-carboxylate photocaged dihydrotetrazine 1a was obtained. Nuclear magnetic resonance (NMR) studies confirmed that the secondary amine adjacent to the alkyl group of dihydrotetrazine 1a is functionalized. We analyzed light-triggered tetrazine formation from photocaged dihydrotetrazine 1a (FIGS. 2A-2B). […] We measured a second-order rate constant of 101±3 M^−1 s^−1 between 2a and a model strained dienophile, trans-4-cycloocten-1-ol (TCO-OH), by monitoring the disappearance of the characteristic tetrazine visible absorption at 521 nm under pseudo first-order conditions (13).

[4] = Stability of photocaged dihydrotetrazine in aqueous solution / PBS / cell lysate without irradiation; assay type: physicochemical; conditions: absence of irradiation, 37° C.
Excerpt: We initiated our studies by synthesizing photocaged dihydrotetrazines 1. Ideally, photocaged dihydrotetrazine 1 should be stable in aqueous solution and the uncaged dihydrotetrazine should rapidly air oxidize to tetrazine 2. With these criteria in mind, we chose 3-(but-3-yn-1-yl)-6-phenyl-[…]1,2,4,5-tetrazine as a model building block, which we reduced to the corresponding dihydrotetrazine. We decided to include a terminal alkyne so that the photocaged dihydrotetrazine could be conjugated to functional molecules by copper-catalyzed azide-alkyne cycloaddition. For the photocleavable protecting group, we decided to utilize 1-(2-nitrophenyl)ethyl carbamate, due to its sensitivity to visible light, and its previous use in cellular studies. […] In the absence of irradiation, 1a is stable in aqueous solution at 37° C. with open air for over 4 days. Having photocaged dihydrotetrazines 1 in hand, we next characterized product formation after visible light triggered decaging (FIG. 2A). […] The resulting dihydrotetrazine intermediate is spontaneously oxidized by air, generating the desired 3-(but-3-yn-1-yl)-6-phenyl-1,2,4,5-tetrazine 2a.
as §1, with “After reacting the dihydrotetrazine intermediate with the selected photocleavable group, the desired product 1-(2-nitrophenyl)ethyl 6-(but-3-yn-1-yl)-3-phenyl-1,2,4,5-tetrazine-1(4H)-carboxylate photocaged dihydrotetrazine 1a was obtained. Nuclear magnetic resonance (NMR) studies confirmed that the secondary amine adjacent to the alkyl group of dihydrotetrazine 1a is functionalized.” left out

**Q.** With `COc1cccc2c1C(=O)c1c(O)c3c(c(O)c1C2=O)C[C@@](O)(C(=O)CO)C[C@@H]3O[C@H]1C[C@H](N)[C@H](O)[C@H](C)O1` [Dox 5a, doxorubicin, reference compound] as the compound, how does the “loss of cell viability compared with irradiated 1a + TCO-Dox 3c mixture” value ([1]; direct treatment with Dox 5.5 μM, same conditions) read?
**A.** similar

**Q.** Which results are given for `C#CCCc1nnc(-c2ccccc2)nn1` [2a, 3-(but-3-yn-1-yl)-6-phenyl-1,2,4,5-tetrazine]?
**A.** degradation in 4-methylpiperidine/DMF solution ([2]; 30 minutes): 40%; second-order rate constant [3]: 101 ± 3 M⁻¹ s⁻¹

**Q.** For `C#CCCC1=NNC(c2ccccc2)=NN1C(=O)OC(C)c1ccccc1[N+](=O)[O-]` (centres unmarked) [1a, 1-(2-nitrophenyl)ethyl 6-(but-3-yn-1-yl)-3-phenyl-1,2,4,5-tetrazine-1(4H)-carboxylate], which “stable in aqueous solution (time)” value ([4]; open air) is on record?
**A.** over 4 days

**Q.** What about the “decomposition after 4 days of incubation” value ([4]; PBS or cell lysate) of the same compound?
**A.** less than 1%

**Q.** What about the “degradation over 1 day” value ([4]; PBS or cell lysate) of the same compound?
**A.** not observed

**Q.** What about the “stability in 4-methylpiperidine/DMF solution” value ([2]; 4-methylpiperidine/DMF solution) of the same compound?
**A.** stable; also recorded: no detectable degradation

**Q.** And the “influence on cell viability, agent alone” value [1]?
**A.** no influence on cell viability

**Q.** What about the “influence on cell viability, agent alone with irradiation” value [1] of the same compound?
**A.** no influence on cell viability

**Q.** Which “influence on cell viability, agent alone” value [1] does the source give for `COc1cccc2c1C(=O)c1c(O)c3c(c(O)c1C2=O)C[C@@](O)(C(=O)CO)C[C@@H]3O[C@H]1C[C@H](NC(=O)OC2/C=C/CCCCC2)[C@H](O)[C@H](C)O1` (some centres unmarked) [TCO-Dox 3c] here?
**A.** no influence on cell viability

**Q.** What about the “influence on cell viability, agent alone with irradiation” value [1] of the same compound?
**A.** no influence on cell viability
